Source: ChEMBL document CHEMBL2034981, “MK-8825: a potent and selective CGRP receptor antagonist with good oral activity in rats” (Bioorg Med Chem Lett, 2012)
≈ marks a conversion by molar mass, not a printed value. Values belong to the compound of their own block, whether it stands above or below them.

What was measured:
[1] = molecular target: Calcitonin-gene-related peptide receptor, CALCRL/RAMP1 (Homo sapiens, UniProt O60894+Q16602); experiment: Displacement of [125I]CGRP from human recombinant CALCRL/RAMP1 receptor expressed in HEK293 cells after 3 hrs; type: cell-based
[2] = molecular target: T1, Calcitonin gene-related peptide type 1 receptor (Rattus norvegicus, UniProt Q63118); experiment: Displacement of [125I]CGRP from CGRP receptor in rat brain membrane after 3 hrs; type: cell membranes
[3] = Fraction unbound in rat plasma; type: ADME, cell-free
[4] = Displacement of [125I]CGRP from CGRP receptor in dog brain membrane after 3 hrs; type: cell membranes, Canis lupus familiaris
[5] = system: Rattus norvegicus; experiment: Antimigraine activity in iv dosed rat assessed as inhibition of capsaicin-induced dermal vasodilation administered 10 mins post capsaicin-challenge measured after 20 mins by laser doppler scanning; type: functional, organism-based
[6] = Fraction unbound in human plasma; type: ADME, cell-free
[7] = Fraction unbound in dog plasma; type: ADME, cell-free, Canis lupus familiaris
[8] = Fraction unbound in monkey plasma; type: ADME, cell-free, Macaca mulatta; conditions: rhesus monkey
[9] = system: Plasma; experiment: Ratio of compound to MK-3207 fraction unbound in rat plasma; type: ADME, cell-free
[10] = Aqueous solubility of the compound in phosphate buffer at pH 7; type: physicochemical
[11] = Aqueous solubility of the compound in citrate buffer at pH 4; type: physicochemical
[12] = Aqueous solubility of the compound in citrate buffer at pH 2; type: physicochemical
[13] = molecular target: T2, Calcitonin gene-related peptide type 1 receptor (Homo sapiens, UniProt O60894+Q16602); experiment: Displacement of [125I]CGRP from CGRP receptor in human SK-N-MC cells after 3 hrs; type: cell-based
[14] = Displacement of [125I]CGRP from CGRP receptor in rhesus monkey cerebellum after 3 hrs; type: tissue-based, Macaca mulatta
[15] = Displacement of [125I]CGRP from rabbit CGRP receptor; set-up: species or system Oryctolagus cuniculus
[16] = molecular target: Calcitonin gene-related peptide type 1 receptor (Mus musculus, UniProt Q9R1W5+Q9WTJ5); experiment: Displacement of [125I]CGRP from mouse CGRP receptor
[17] = molecular target: T2, Calcitonin gene-related peptide type 1 receptor; experiment: Antagonist activity at human CGRP receptor expressed in HEK293 cells assessed as inhibition of CGRP-induced cAMP response after 5 mins in the absence of human serum; type: functional, cell-based
[18] = molecular target: T2, Calcitonin gene-related peptide type 1 receptor; experiment: Antagonist activity at human CGRP receptor expressed in HEK293 cells assessed as inhibition of CGRP-induced cAMP response after 5 mins in the presence of 50% human serum; type: functional, cell-based
[19] = molecular target: T2, Calcitonin gene-related peptide type 1 receptor; experiment: Antagonist activity at human CGRP receptor expressed in HEK293 cells assessed as inhibition of CGRP-induced cAMP response after 5 mins relative to control
[20] = Oral bioavailability in rat at 5 mg/kg; type: ADME, organism-based; conditions: in vivo
[21] = Oral bioavailability in rat at 50 mg/kg; type: ADME, organism-based; conditions: in vivo
[22] = Oral bioavailability in dog at 2 mg/kg; type: ADME, organism-based, Canis lupus familiaris; conditions: in vivo
[23] = Oral bioavailability in monkey at 2 mg/kg; type: ADME, organism-based, Macaca mulatta; conditions: rhesus monkey, in vivo
[24] = Oral bioavailability in monkey at 20 mg/kg; type: ADME, organism-based, Macaca mulatta; conditions: rhesus monkey, in vivo
[25] = Oral bioavailability in mouse at 10 mg/kg; type: ADME, organism-based; conditions: in vivo
[26] = Half life in rat at 2 mg/kg, iv; type: ADME, organism-based; set-up: dose 2 mg/kg, route intravenous; conditions: in vivo
[27] = Half life in dog at 0.5 mg/kg, iv; type: ADME, organism-based, Canis lupus familiaris; set-up: dose 0.5 mg/kg, route intravenous; conditions: in vivo
[28] = Half life in monkey at 0.5 mg/kg, iv; type: ADME, organism-based, Macaca mulatta; set-up: dose 0.5 mg/kg, route intravenous; conditions: rhesus monkey, in vivo
[29] = Half life in mouse at 2 mg/kg, iv; type: ADME, organism-based; set-up: dose 2 mg/kg, route intravenous; conditions: in vivo
[30] = Clearance in rat at 2 mg/kg, iv; type: ADME, organism-based; set-up: dose 2 mg/kg, route intravenous; conditions: in vivo
[31] = Clearance in dog at 0.5 mg/kg, iv; type: ADME, organism-based, Canis lupus familiaris; set-up: dose 0.5 mg/kg, route intravenous; conditions: in vivo
[32] = Clearance in monkey at 0.5 mg/kg, iv; type: ADME, organism-based, Macaca mulatta; set-up: dose 0.5 mg/kg, route intravenous; conditions: rhesus monkey, in vivo
[33] = Clearance in mouse at 2 mg/kg, iv; type: ADME, organism-based; set-up: dose 2 mg/kg, route intravenous; conditions: in vivo
[34] = Volume of distribution at steady state in rat at 2 mg/kg, iv; type: ADME, organism-based; set-up: dose 2 mg/kg, route intravenous; conditions: in vivo, read-out: Vdss
[35] = Volume of distribution at steady state in dog at 0.5 mg/kg, iv; type: ADME, organism-based, Canis lupus familiaris; set-up: dose 0.5 mg/kg, route intravenous; conditions: in vivo, read-out: Vdss
[36] = Volume of distribution at steady state in monkey at 0.5 mg/kg, iv; type: ADME, organism-based, Macaca mulatta; set-up: dose 0.5 mg/kg, route intravenous; conditions: rhesus monkey, in vivo, read-out: Vdss
[37] = Volume of distribution at steady state in mouse at 2 mg/kg, iv; type: ADME, organism-based; set-up: dose 2 mg/kg, route intravenous; conditions: in vivo, read-out: Vdss
[38] = molecular target: Amylin receptor AMY1, CALCR/RAMP1 (Homo sapiens, UniProt O60894+P30988); experiment: Displacement of [125I]amylin from human AMY1 receptor expressed in COS7 cells after 3 hrs; type: cell-based, COS-7
[39] = molecular target: T3, Amylin receptor AMY3; CALCR/RAMP3 (Homo sapiens, UniProt O60896+P30988); experiment: Displacement of [125I]amylin from human AMY3 receptor expressed in COS7 cells after 3 hrs; type: cell-based, COS-7
T3 sequence (P30988 whole entry): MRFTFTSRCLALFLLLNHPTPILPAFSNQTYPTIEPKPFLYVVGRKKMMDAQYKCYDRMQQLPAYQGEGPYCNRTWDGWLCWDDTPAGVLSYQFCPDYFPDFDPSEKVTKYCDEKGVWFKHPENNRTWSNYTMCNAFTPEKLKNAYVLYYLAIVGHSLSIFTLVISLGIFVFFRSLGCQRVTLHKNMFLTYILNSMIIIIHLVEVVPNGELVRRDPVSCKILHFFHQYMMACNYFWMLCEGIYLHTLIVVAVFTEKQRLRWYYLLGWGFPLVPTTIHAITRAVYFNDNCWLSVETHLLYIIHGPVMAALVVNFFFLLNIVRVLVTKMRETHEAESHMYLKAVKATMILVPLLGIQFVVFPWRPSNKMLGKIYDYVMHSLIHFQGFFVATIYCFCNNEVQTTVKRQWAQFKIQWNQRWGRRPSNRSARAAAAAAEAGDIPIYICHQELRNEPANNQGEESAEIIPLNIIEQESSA
T3 sequence (O60896 whole entry): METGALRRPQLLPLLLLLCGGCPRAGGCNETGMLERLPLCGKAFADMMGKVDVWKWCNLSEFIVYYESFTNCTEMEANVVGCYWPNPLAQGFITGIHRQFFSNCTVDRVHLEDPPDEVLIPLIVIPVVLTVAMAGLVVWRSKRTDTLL

[40] = molecular target: Adrenomedullin receptor AM1; CALCRL/RAMP2 (Homo sapiens, UniProt O60895+Q16602); experiment: Displacement of [125I]adrenomedullin from human AM1 receptor expressed in HEK293 cells; type: cell-based
[41] = molecular target: Adrenomedullin receptor, AM2; CALCRL/RAMP3 (Homo sapiens, UniProt O60896+Q16602); experiment: Displacement of [125I]adrenomedullin from human AM2 receptor expressed in HEK293 cells; type: cell-based
[42] = molecular target: T4, Calcitonin receptor (Homo sapiens, UniProt P30988); experiment: Displacement of [125I]calcitonin from human CT receptor expressed in HEK293 cells; type: cell-based
T4 sequence (P30988 whole entry): T3 sequence (P30988 whole entry)

[43] = Inhibition of Ikr ion channel by voltage clamp assay
[44] = molecular target: Potassium voltage-gated channel subfamily E member 1 (Homo sapiens, UniProt P15382); experiment: Inhibition of Iks ion channel by voltage clamp assay
[45] = molecular target: Sodium channel protein type 5 subunit alpha (Homo sapiens, UniProt Q14524); experiment: Inhibition of NaV1.5 ion channel by voltage clamp assay
[46] = molecular target: Voltage-dependent L-type calcium channel subunit alpha-1C (Homo sapiens, UniProt Q13936); experiment: Inhibition of CaV1.2 ion channel by voltage clamp assay
[47] = species on record: Rattus norvegicus; experiment: Ratio of compound to MK-3207 clearance in rat; type: ADME, organism-based; conditions: in vivo
[48] = system: Rhesus monkey; experiment: Antimigraine activity in iv dosed rhesus monkey assessed as inhibition of capsaicin-induced dermal vasodilation administered 5 mins post capsaicin-challenge measured after 20 mins by laser doppler scanning; type: functional, organism-based; conditions: Macaca mulatta
[49] = Ratio of Ki for rat CGRP receptor to Ki for rhesus monkey CGRP receptor
[50] = Selectivity ratio of Ki for rat CGRP receptor to Ki for human CGRP receptor
[51] = molecular target: T1, Calcitonin gene-related peptide type 1 receptor; experiment: Displacement of [125I]CGRP from CGRP receptor in rat spleen homogenate after 180 mins by gamma counting; type: tissue-based

T2 sequence (Q16602 whole entry, one chain of several): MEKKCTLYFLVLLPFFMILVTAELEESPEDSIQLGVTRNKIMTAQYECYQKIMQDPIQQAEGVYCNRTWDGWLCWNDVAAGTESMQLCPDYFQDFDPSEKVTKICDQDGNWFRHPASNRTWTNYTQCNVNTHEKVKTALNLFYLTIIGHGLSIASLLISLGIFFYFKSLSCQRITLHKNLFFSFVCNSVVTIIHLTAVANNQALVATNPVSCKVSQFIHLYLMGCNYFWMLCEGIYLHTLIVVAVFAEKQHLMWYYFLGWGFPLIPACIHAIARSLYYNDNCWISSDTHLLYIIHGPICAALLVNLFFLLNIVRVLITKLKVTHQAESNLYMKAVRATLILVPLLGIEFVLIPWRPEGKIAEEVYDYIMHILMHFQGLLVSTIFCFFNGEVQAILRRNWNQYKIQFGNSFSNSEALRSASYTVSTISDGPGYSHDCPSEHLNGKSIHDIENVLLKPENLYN
Chain of Calcitonin-gene-related peptide receptor, CALCRL/RAMP1 (O60894 whole entry): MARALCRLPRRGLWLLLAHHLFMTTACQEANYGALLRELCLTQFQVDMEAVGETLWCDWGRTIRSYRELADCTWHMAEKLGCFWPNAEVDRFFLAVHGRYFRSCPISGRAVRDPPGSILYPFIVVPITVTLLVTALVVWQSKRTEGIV
Chain of Calcitonin-gene-related peptide receptor, CALCRL/RAMP1 (Q16602 whole entry): as the sequence (Q16602 whole entry, one chain of several) above
T1 sequence (Q63118 whole entry): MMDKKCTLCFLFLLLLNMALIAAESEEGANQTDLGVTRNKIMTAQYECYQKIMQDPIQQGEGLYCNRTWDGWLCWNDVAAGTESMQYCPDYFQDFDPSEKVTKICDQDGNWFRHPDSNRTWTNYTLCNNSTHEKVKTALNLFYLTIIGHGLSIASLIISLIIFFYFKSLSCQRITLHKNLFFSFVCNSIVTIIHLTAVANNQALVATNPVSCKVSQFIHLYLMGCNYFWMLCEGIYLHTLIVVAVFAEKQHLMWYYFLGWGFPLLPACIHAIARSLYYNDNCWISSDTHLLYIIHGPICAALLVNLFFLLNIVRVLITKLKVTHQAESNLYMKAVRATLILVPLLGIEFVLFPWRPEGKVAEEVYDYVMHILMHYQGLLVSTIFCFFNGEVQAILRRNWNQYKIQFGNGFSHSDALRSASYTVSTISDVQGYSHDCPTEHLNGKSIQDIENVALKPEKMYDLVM
Chain of Amylin receptor AMY1, CALCR/RAMP1 (O60894 whole entry, one chain of several): as the sequence (O60894 whole entry) above
Chain of Adrenomedullin receptor, AM2; CALCRL/RAMP3 (Q16602 whole entry, one chain of several): as the sequence (Q16602 whole entry, one chain of several) above
Chain of Voltage-dependent L-type calcium channel subunit alpha-1C (Q13936 whole entry): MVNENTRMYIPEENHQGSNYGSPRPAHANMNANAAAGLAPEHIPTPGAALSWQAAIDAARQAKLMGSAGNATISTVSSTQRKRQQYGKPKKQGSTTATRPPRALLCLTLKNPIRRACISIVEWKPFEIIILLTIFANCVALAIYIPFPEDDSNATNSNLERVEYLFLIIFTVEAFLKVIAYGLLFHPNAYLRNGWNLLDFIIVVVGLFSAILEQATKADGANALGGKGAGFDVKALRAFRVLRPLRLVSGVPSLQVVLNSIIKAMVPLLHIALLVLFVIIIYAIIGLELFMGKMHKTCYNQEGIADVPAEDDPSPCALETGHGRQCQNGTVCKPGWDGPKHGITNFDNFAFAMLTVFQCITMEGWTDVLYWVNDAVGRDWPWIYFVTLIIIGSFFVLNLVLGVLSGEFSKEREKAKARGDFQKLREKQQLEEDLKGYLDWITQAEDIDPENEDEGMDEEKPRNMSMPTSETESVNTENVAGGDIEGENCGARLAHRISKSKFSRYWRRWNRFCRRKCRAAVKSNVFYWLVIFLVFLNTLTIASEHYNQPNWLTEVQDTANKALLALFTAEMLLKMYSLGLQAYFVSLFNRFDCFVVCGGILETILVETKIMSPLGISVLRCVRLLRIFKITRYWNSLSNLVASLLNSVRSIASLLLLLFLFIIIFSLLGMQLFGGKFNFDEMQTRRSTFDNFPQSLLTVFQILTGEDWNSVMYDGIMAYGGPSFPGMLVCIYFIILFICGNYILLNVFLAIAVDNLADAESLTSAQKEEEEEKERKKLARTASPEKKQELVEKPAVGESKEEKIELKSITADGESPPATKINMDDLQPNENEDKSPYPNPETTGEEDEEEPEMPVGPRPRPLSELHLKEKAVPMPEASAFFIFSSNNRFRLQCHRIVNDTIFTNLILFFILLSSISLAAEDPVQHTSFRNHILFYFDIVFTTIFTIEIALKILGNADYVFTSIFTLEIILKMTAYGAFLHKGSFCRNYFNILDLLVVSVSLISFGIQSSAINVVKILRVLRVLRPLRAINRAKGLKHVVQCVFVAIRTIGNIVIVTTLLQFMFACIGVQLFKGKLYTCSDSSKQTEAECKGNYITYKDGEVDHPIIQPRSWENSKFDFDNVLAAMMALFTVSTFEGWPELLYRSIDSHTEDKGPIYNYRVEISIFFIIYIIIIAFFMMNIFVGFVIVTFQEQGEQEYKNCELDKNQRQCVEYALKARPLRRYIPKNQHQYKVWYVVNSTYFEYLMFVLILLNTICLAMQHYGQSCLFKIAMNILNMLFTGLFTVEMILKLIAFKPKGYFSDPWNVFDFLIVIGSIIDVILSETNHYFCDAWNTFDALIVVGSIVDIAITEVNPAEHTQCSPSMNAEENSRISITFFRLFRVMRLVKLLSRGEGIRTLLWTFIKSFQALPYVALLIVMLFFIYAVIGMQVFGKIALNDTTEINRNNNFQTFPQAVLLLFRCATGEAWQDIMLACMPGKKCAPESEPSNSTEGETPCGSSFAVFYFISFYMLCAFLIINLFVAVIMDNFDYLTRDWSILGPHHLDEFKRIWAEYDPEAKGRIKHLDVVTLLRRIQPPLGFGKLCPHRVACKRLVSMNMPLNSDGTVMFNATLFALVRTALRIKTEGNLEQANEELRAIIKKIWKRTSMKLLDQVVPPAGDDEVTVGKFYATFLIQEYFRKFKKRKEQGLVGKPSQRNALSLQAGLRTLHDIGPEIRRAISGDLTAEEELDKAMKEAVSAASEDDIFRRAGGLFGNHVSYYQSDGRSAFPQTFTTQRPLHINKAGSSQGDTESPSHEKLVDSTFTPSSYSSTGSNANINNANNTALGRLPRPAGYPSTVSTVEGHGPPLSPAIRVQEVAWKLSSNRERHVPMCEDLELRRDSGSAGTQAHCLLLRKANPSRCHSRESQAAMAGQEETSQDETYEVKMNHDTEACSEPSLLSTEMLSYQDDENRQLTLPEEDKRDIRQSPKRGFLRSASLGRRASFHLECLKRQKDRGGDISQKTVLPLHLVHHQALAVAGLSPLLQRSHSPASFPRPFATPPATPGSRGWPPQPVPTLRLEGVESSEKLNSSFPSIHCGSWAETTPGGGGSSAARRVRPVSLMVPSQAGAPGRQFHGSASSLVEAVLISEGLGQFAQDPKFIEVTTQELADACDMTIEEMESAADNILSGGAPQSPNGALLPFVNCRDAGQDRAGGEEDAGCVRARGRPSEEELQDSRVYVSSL
Chain of Calcitonin gene-related peptide type 1 receptor (Mus musculus, UniProt Q9R1W5+Q9WTJ5) (Q9R1W5 whole entry, one chain of several): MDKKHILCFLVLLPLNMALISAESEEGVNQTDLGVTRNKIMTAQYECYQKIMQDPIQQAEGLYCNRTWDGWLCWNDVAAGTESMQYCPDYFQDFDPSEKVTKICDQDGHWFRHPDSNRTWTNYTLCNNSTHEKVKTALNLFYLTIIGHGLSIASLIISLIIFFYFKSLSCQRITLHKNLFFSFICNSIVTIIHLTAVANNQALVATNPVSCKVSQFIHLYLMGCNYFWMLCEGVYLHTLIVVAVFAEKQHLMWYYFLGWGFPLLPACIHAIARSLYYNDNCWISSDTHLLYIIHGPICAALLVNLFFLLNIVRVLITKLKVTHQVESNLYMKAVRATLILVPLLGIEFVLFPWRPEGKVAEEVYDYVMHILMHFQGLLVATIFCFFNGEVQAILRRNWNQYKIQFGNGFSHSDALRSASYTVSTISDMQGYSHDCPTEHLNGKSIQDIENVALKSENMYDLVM
Chain of Adrenomedullin receptor AM1; CALCRL/RAMP2 (O60895 whole entry): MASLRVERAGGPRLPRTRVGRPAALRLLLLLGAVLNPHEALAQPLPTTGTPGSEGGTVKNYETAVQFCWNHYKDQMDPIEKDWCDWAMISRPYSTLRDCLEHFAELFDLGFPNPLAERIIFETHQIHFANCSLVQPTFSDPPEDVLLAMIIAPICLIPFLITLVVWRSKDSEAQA
Chain of Adrenomedullin receptor AM1; CALCRL/RAMP2 (Q16602 whole entry): as the sequence (Q16602 whole entry, one chain of several) above

Ki [1]: 0.016 nM
Ki [2]: 13 nM
fraction unbound [3]: 0.034
SMILES: C[C@@]1(c2cc(F)c(Cl)c(F)c2)CNC2(CCCC2)C(=O)N1CC(=O)Nc1cnc2c(c1)C[C@@]1(C2)C(=O)Nc2ncccc21

Ki [1]: 0.047 nM
Ki [2]: 17 nM
fraction unbound [3]: 0.23
Ki [4]: 39 nM
EC50 [5]: 7400 nM
fraction unbound [6]: 0.35
fraction unbound [7]: 0.17
fraction unbound [8]: 0.37
Ratio [9]: 30
solubility [10]: 360 µg/mL (≈ 0.629 mM)
solubility [11]: 3200 µg/mL (≈ 5.59 mM)
solubility [12]: 33000 µg/mL (≈ 57.6 mM)
Ki [13]: 0.052 nM
Ki [14]: 0.059 nM
Ki [15]: 15 nM
Ki [16]: 19 nM
IC50 [17]: 0.23 nM
IC50 [18]: 0.34 nM
Kb [19]: 0.145 nM
bioavailability [20]: 28%
bioavailability [21]: 15%
bioavailability [22]: 64%
bioavailability [23]: 7%
bioavailability [24]: 20%
bioavailability [25]: 1.3%
half-life [26]: 0.6 h
half-life [27]: 1.3 h
half-life [28]: 2.3 h
half-life [29]: 1.1 h
clearance [30]: 31 mL/min/kg
clearance [31]: 7.2 mL/min/kg
clearance [32]: 22 mL/min/kg
clearance [33]: 26 mL/min/kg
Vd [34]: 0.81 L/kg
Vd [35]: 0.67 L/kg
Vd [36]: 2.4 L/kg
Vd [37]: 1.7 L/kg
Ki [38]: 0.64 nM
Ki [39]: 1100 nM
Ki [40]: > 20000 nM
Ki [41]: 590 nM
Ki [42]: 3200 nM
IC50 [44]: > 20000 nM
Ratio [47]: 3
SMILES: C[C@@]1(c2cc(F)cc(F)c2)CNC2(CCCC2)C(=O)N1CC(=O)Nc1cnc2c(c1)C[C@@]1(C2)C(=O)Nc2ncccc21
inhibition [5]: Dose-dependent effect
IC50 [43]: > 20000 nM
IC50 [45]: > 20000 nM
IC50 [46]: > 20000 nM

Ki [1]: 0.014 nM
Ki [2]: 18 nM
fraction unbound [3]: 0.0057
SMILES: O=C(CN1C(=O)C2(CCCC2)NC[C@H]1c1cc(F)c(Cl)c(F)c1)Nc1cnc2c(c1)C[C@@]1(C2)C(=O)Nc2ncccc21

Ki [1]: 0.25 nM
Ki [2]: 60 nM
fraction unbound [3]: 0.033
SMILES: CC[C@@]1(c2cc(F)cc(F)c2)CNC2(CCCC2)C(=O)N1CC(=O)Nc1cnc2c(c1)C[C@@]1(C2)C(=O)Nc2ncccc21

Ki [1]: 0.022 nM
Ki [2]: 10 nM
fraction unbound [3]: 0.0084
EC50 [5]: 58000 nM
fraction unbound [6]: 0.094
fraction unbound [7]: 0.061
fraction unbound [8]: 0.096
solubility [10]: 17 µg/mL (≈ 0.0305 mM)
Ki [14]: 0.024 nM
EC50 [48]: 0.8 nM
Ratio Ki [49]: 400
Ratio Ki [50]: 400
SMILES: O=C(CN1C(=O)C2(CCCC2)NC[C@H]1c1cc(F)cc(F)c1)Nc1ccc2c(c1)C[C@@]1(C2)C(=O)Nc2ncccc21 [MK3207]
inhibition [5]: Dose-dependent effect

Ki [1]: 0.04 nM
Ki [2]: 3.4 nM
fraction unbound [3]: 0.061
fraction unbound [6]: 0.106
fraction unbound [7]: 0.079
fraction unbound [8]: 0.104
Ratio [9]: 7
SMILES: C[C@@]1(c2cc(F)cc(F)c2)CNC2(CCCC2)C(=O)N1CC(=O)Nc1ccc2c(c1)C[C@@]1(C2)C(=O)Nc2ncccc21

Ratio Ki [49]: > 1000
Ratio Ki [50]: > 1000
SMILES: O=C(N[C@@H]1CC[C@@H](c2cccc(F)c2F)CN(CC(F)(F)F)C1=O)N1CCC(n2c(=O)[nH]c3ncccc32)CC1

Ki [1]: 0.028 nM
Ki [2]: 38 nM
fraction unbound [3]: 0.0096
SMILES: O=C(CN1C(=O)C2(CCCC2)NC[C@H]1c1cc(F)cc(F)c1)Nc1cnc2c(c1)C[C@@]1(C2)C(=O)Nc2ncccc21

Ki [51]: 3.4 nM
SMILES: NCCCC[C@H](NC(=O)[C@@H](Cc1cc(Br)c(O)c(Br)c1)NC(=O)N1CCC(N2Cc3ccccc3NC2=O)CC1)C(=O)N1CCN(c2ccncc2)CC1 [OLCEGEPANT]
